Test results as given in patent US20250346582A1, “SPLEEN TYROSINE KINASE INHIBITORS AND METHODS OF USE THEREOF” (THE BOARD OF TRUSTEES OF THE UNIVERSITY OF ILLINOIS, priority 2022, published 2025).
Each block holds one molecule with its values, some of them ahead of it.

Assays:
Syk [1] = molecular target: T1, Syk (Homo sapiens, UniProt P43405); experiment: Streptavidin pull down assay with WC36B in MV4-11 cells; type: cell-based; conditions: MV4-11 cells, 5 μM for 24 h, immunoblotting
T1 construct: host or cells: MV4-11 AML cells (naive and entospletinib-resistant)
Method: (§1) Streptavidin-coated beads (Dynabeads™ M280 streptavidin beads; ThermoFisher) were washed twice with 1 ml of PBST (PBS+0.1% Tween 20) and resuspended in 100 μl of PBST. WC36B (or biotin) (10 mM) was added to 100 μl of the bead suspension and the mixture was incubated at room temperature for 15 min with gentle shaking. The mixture was then vortexed for 5 s and the tube was placed on a magnet for 1 min. After discarding the supernatant, the beads were resuspended in the same volume of the washing buffer. Washing is repeated three times to remove excess WC36B. WC36B-coated beads were then incubated with the cell lysate (MV-4-11) for 30 min at room temperature with gentle shaking. Protein-coated beads were separated with a magnet for 2-3 min and washed 4-5 times with PBS containing 0.1% BSA. The protein was then removed from the beads by boiling the beads in the SDS-polyacrylamide gel electrophoresis (PAGE) application buffer. Samples were concentrated for the mass spectrometry analysis and the western blot assay.

Syk [2] = molecular target: T1, Syk; experiment: Mass spectrometry proteomics of WC36B-binding cellular proteins; type: cell-based; conditions: biotin as negative control
Method: as §1
MS analysis was performed to identify proteins captured by WC36B and biotin. […]

[3] = test system: plasma membrane translocation of EGFP-Syk WT; experiment: Subcellular localization of EGFP-Syk WT in DT40 cells; type: cell-based, chicken; conditions: IgM stimulation
Method: DT40-Syk^−/− cells transfected with EGFP-Syk WT (or K220/K222A) and mCherry-mCherry-eMyoX-tPH were imaged under 100× magnification with a Nikon Eclipse Ti2 microscope using the NIS element software. For IgM stimulation, cells were dropped on the IgM-coated surface (10 ng/ml) covered with the imaging buffer (HBSS pH 7.4, 2 mM MgCl2, 1% FBS) and incubated for 10 min before imaging. Pearson's correlation coefficient (y) was calculated using Coloc 2, which is a Fiji's plugin for colocalization analysis. The plasma membrane was selected as the region of interest for calculation of the coefficient. Averages ±s.d.'s of γ values were calculated from triplicate determinations.

pZAP70 = molecular target: T2, pZAP70 (Homo sapiens, UniProt P43403); experiment: Western blot inhibition of ZAP70 phosphorylation in Jurkat T cells; type: cell-based; conditions: Jurkat T cells stimulated by OKT3; 5 μM overnight
T2 construct: host or cells: Jurkat T cells, OKT3-stimulated
T2 sequence (P43403 1-619): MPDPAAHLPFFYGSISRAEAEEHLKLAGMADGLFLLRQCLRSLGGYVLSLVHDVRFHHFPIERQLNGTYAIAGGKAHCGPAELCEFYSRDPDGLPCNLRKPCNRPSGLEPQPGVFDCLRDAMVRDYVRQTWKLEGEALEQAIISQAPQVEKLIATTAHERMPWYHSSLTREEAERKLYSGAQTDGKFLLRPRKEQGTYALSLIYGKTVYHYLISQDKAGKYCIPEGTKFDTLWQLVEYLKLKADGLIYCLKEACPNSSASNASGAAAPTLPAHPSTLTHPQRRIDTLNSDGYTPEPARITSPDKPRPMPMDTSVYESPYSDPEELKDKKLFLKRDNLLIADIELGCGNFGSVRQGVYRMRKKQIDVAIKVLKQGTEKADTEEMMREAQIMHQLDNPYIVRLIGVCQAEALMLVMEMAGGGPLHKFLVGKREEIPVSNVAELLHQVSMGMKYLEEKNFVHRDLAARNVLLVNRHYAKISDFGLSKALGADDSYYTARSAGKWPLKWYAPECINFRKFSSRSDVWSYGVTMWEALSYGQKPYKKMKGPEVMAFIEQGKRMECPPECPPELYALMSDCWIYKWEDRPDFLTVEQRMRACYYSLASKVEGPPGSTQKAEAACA
Method: (a) Cellular efficacy of WC35, WC36, and WC38 was determined by dose-dependent inhibition of Syk phosphorylation in Raji B cells. (b) Imax and IC50 values were determined by non-linear least-squares analysis of data using the equation: […] Each data represents average ±s.d. from triplicate measurements. […] Jurkat T cells were stimulated by OKT3. Cells were seeded at a density of 3.0×10^5 cells/well prior to incubation with inhibitors. […] IgG2 for AML cells, IgM for Raji B cells, and OKT3 (Biolegend) for Jurkat cells. […] Samples were analyzed by SDS-PAGE. Proteins were separated and transferred to Immobilon-P polyvinylidene difluoride membrane (Millipore Sigma). […] The chemiluminescence intensity of protein bands in the gel was analyzed and documented by the Azure […] Imaging System.

[4] = test system: phosphorylation of Syk, ERK1/2 and STAT3/5; experiment: Western blot of phosphorylation in entospletinib-resistant MV4-11 cells; type: cell-based; conditions: 5 μM
Method: (§2) Cells were seeded at a density of 3.0×10^5 cells/well prior to incubation with inhibitors. Cells were incubated with 1-5 μM of Syk inhibitors overnight and stimulated with different antibodies: IgG2 for AML cells, IgM for Raji B cells, and OKT3 (Biolegend) for Jurkat cells. The cells were lysed in NP40 lysis buffer (50 mM Tris, pH 7.5, 150 mM NaCl, 1 mM EDTA, 1% NP40, 10% glycerol, 10 mM NaF, 10 mM Na3VO4, and the protease inhibitor cocktail) at 4° C. and the cell debris was removed by centrifugation. Samples were analyzed by SDS-PAGE. Proteins were separated and transferred to Immobilon-P polyvinylidene difluoride membrane (Millipore Sigma). The membrane was blocked with 5% bovine serum albumin for 1 h and incubated overnight at 4° C. with various antibodies (1:1000 dilution for all antibodies). After the unbound antibodies were removed by washing with 0.1% Tris buffer saline with 0.1% Tween20, the membranes were incubated with the horseradish peroxidase secondary antibody (1:5000 dilution) for 1 h at room temperature. The membranes were washed three more times with 0.1% Tris buffer saline with 0.1% Tween20 to remove the unbound horseradish peroxidase secondary antibody before imaging. The chemiluminescence intensity of protein bands in the gel was analyzed and documented by the Azure 500Q Imaging System.
(§3) Then the concentration was maintained at 5 μM.

MV4-11 cells = experiment: Generation of drug-resistant MV4-11 cells under chronic treatment; type: cell-based; conditions: inhibitor increased from 0.5 to 5 μM over 10 weeks
Method: as §3

[5] = test system: phosphorylation of ERK1/2 and STAT3/5; experiment: Western blot of phosphorylation in HL60 cells; type: cell-based; conditions: RAS-mutated HL60 cells; 5 μM
Method: FIGS. 3A-3D show the inhibition of the signaling activity and proliferation of HL-60 AML cells by Syk-cSH2 inhibitors. […] DMSO was used as a negative control and GAPDH as a gel loading control. […] (c) Inhibition of phosphorylation of Syk, STAT3/5 and ERK1/2 in patient-derived primary AML cells by WC36. Cells were cultured overnight in the presence of CD34+ cytokine supplement. DMSO was used as a negative control. Representative data from one (Patient 1) of four patient samples are shown here. (d) Inhibition of the proliferation of four patient AML cells by WC36 measured by the colony growth assay. The number of colonies after WC36 treatment was normalized to the enumerated colonies after DMSO treatment.
as §2

capture of Syk by streptavidin pulldown (Syk [1]): targets Syk in MV4-11 cells
SMILES: [N-]=[N+]=C(C(=O)NCCNC(=O)CCCC[C@H]1SC[C@H]2NC(=O)N[C@H]21)C(Nc1ncccn1)c1c[nH]c2ccccc12 (stereo partly drawn) [WC36B, N-(2-(2-diazo-3-(1H-indol-3-yl)-3-(pyrimidin-2-ylamino)propanamido)ethyl)-5-((3aR,4R,6aS)-2-oxohexahydro-1H-thieno[3,4d]imidazol-4-yl)pentanamide]
proteins captured (proteomics) (Syk [2]): Syk is the single major protein that is captured by the WC36 pharmacophore

SMILES: CS(=O)(=O)N1CCN(Cc2cc3nc(-c4cccc5[nH]ncc45)nc(N4CCOCC4)c3s2)CC1 [GDC-0941]
plasma membrane translocation of EGFP-Syk WT [3]: greatly suppressed

SMILES: c1cn2cc(-c3ccc4cn[nH]c4c3)nc(Nc3ccc(N4CCOCC4)cc3)c2n1 [entospletinib, reference compound]
inhibition of ZAP-70 phosphorylation (pZAP70): significantly inhibited ZAP-70 phosphorylation | inhibition of phosphorylation of Syk, ERK1/2 and STAT3/5 [4]: could not inhibit phosphorylation of ERK1/2 and STAT3/5 in resistant MV4-11 cells while still potently inhibiting Syk phosphorylation | development of acquired resistance (MV4-11 cells): readily developing resistance to entospletinib | inhibition of phosphorylation of ERK1/2 and STAT3/5 [5]: could not suppress phosphorylation of ERK1/2 and STAT3/5
